Laboratory results published in the NIST ThermoML archive (doi:10.1021/je1007197).

Test: xn = mol fraction of the nth substance listed
Details: Liquid, Hot wire method

CCCCOCCO [2-butoxyethan-1-ol] + O
Details | thermal conductivity [W/m/K]
321.15 K, 19300 kPa, x1 = 0.75 | 0.1693
321.15 K, 19700 kPa, x1 = 0.5 | 0.1896
321.15 K, 28300 kPa, x1 = 0.75 | 0.1718
321.15 K, 39300 kPa, x1 = 0.75 | 0.1744
321.15 K, 41800 kPa, x1 = 0.5 | 0.1959
321.15 K, 56100 kPa, x1 = 0.5 | 0.2001
321.15 K, 56100 kPa, x1 = 0.75 | 0.1792
321.15 K, 70200 kPa, x1 = 0.5 | 0.2034
321.15 K, 71600 kPa, x1 = 0.75 | 0.1836
321.15 K, 84200 kPa, x1 = 0.5 | 0.2073
321.15 K, 84200 kPa, x1 = 0.75 | 0.1871
321.15 K, 96500 kPa, x1 = 0.5 | 0.2099
321.15 K, 98900 kPa, x1 = 0.75 | 0.1907
321.15 K, 111500 kPa, x1 = 0.75 | 0.1929
321.15 K, 112200 kPa, x1 = 0.5 | 0.2144
321.15 K, 124800 kPa, x1 = 0.75 | 0.1959
321.15 K, 126900 kPa, x1 = 0.5 | 0.2172
321.15 K, 141500 kPa, x1 = 0.5 | 0.2201
321.15 K, 142200 kPa, x1 = 0.75 | 0.1998
321.15 K, 149900 kPa, x1 = 0.5 | 0.2213
321.15 K, 150600 kPa, x1 = 0.75 | 0.2016
322 K, 100 kPa, x1 = 0.0478 | 0.4932
322 K, 5400 kPa, x1 = 0.0478 | 0.4886
322 K, 20000 kPa, x1 = 0.0478 | 0.4931
322 K, 34600 kPa, x1 = 0.0478 | 0.5006
322 K, 52500 kPa, x1 = 0.0478 | 0.5069
322 K, 70200 kPa, x1 = 0.0478 | 0.5149
322 K, 87700 kPa, x1 = 0.0478 | 0.5221
322 K, 105200 kPa, x1 = 0.0478 | 0.528
322 K, 119200 kPa, x1 = 0.0478 | 0.5322
322 K, 133200 kPa, x1 = 0.0478 | 0.5354
335 K, 100 kPa, x1 = 0.1732 | 0.2804
335 K, 10000 kPa, x1 = 0.1732 | 0.2851
335 K, 19000 kPa, x1 = 0.1732 | 0.2895
335 K, 41800 kPa, x1 = 0.1732 | 0.2972
335 K, 70200 kPa, x1 = 0.1732 | 0.306
335 K, 84200 kPa, x1 = 0.1732 | 0.3077
335 K, 98200 kPa, x1 = 0.1732 | 0.3111
335 K, 112200 kPa, x1 = 0.1732 | 0.3153
335 K, 125500 kPa, x1 = 0.1732 | 0.3205
335 K, 137300 kPa, x1 = 0.1732 | 0.3218
338.15 K, 100 kPa, x1 = 0.5 | 0.1796
338.15 K, 100 kPa, x1 = 0.75 | 0.1594
338.15 K, 10400 kPa, x1 = 0.5 | 0.1841
338.15 K, 11000 kPa, x1 = 0.75 | 0.1637
338.15 K, 19000 kPa, x1 = 0.5 | 0.1866
338.15 K, 19500 kPa, x1 = 0.5 | 0.1867
338.15 K, 19500 kPa, x1 = 0.75 | 0.1663
338.15 K, 30700 kPa, x1 = 0.75 | 0.1702
338.15 K, 39300 kPa, x1 = 0.75 | 0.1723
338.15 K, 41800 kPa, x1 = 0.5 | 0.1936
338.15 K, 56100 kPa, x1 = 0.5 | 0.1986
338.15 K, 56100 kPa, x1 = 0.75 | 0.1767
338.15 K, 70200 kPa, x1 = 0.5 | 0.2018
338.15 K, 70200 kPa, x1 = 0.75 | 0.1812
338.15 K, 80700 kPa, x1 = 0.5 | 0.2039
338.15 K, 91200 kPa, x1 = 0.75 | 0.1868
338.15 K, 98200 kPa, x1 = 0.5 | 0.2083
338.15 K, 105200 kPa, x1 = 0.75 | 0.1907
338.15 K, 112200 kPa, x1 = 0.5 | 0.2118
338.15 K, 117800 kPa, x1 = 0.75 | 0.1924
338.15 K, 126200 kPa, x1 = 0.5 | 0.2146
338.15 K, 131800 kPa, x1 = 0.75 | 0.1964
338.15 K, 140800 kPa, x1 = 0.5 | 0.2183
338.15 K, 147100 kPa, x1 = 0.75 | 0.1997
346.5 K, 100 kPa, x1 = 0.1732 | 0.2659
346.5 K, 10000 kPa, x1 = 0.1732 | 0.2753
346.5 K, 20000 kPa, x1 = 0.1732 | 0.2796
346.5 K, 29500 kPa, x1 = 0.1732 | 0.2834
346.5 K, 49000 kPa, x1 = 0.1732 | 0.2904
346.5 K, 84200 kPa, x1 = 0.1732 | 0.3009
346.5 K, 98200 kPa, x1 = 0.1732 | 0.3029
346.5 K, 112200 kPa, x1 = 0.1732 | 0.3046
346.5 K, 122700 kPa, x1 = 0.1732 | 0.31
346.5 K, 140100 kPa, x1 = 0.1732 | 0.3122
346.5 K, 148500 kPa, x1 = 0.1732 | 0.3128
